For data set [1], the system named is Neuro-2a cells. Briefly: Live cell imaging of mRNA in stress granules. The data set is classed as cell-based, Mouse. As to the method:
Experiments were performed to determine whether the MGD2/MGA system would be suitable for live cell imaging of endogenous mRNA localization and dynamics. Moreover, experiments were performed to determine whether one could simultaneously track the real-time localization properties of both RNA and proteins within a living cell. For this assay, Neuro-2a cells were co-transfected with expression plasmids for 1×MGA-mCDK6 and dual GFP-tagged G3BP1 protein. The expressed mRNA was labeled with MGD2 and photo crosslinked. The cells were then imaged to record the spatiotemporal features of both mRNA and protein in stress granules. […] Monitoring the signal intensity, the fluorescent signal generated from the MGD2 labeled granules was observed and remained consistent over >25 min of imaging.
After observing the motility and maturation of the granules, experiments were performed to determine whether one could also observe their dissolution. In mammalian cells, stress granules disassemble in the presence of small aliphatic molecules that disrupt weak hydrophobic interactions. Therefore, 1,6-hexanediol, an aliphatic alcohol commonly used for disassembly of stress granules was added. After arsenite-induced stress granule formation, the cells were incubated in 5% 1,6-hexanediol solution. The fluorescence signal of the labeled 1×MGA-mCDK6 was observed. […]

Another data set relates to 1×MGA-mGFP. Briefly: In vitro fluorescence enhancement of MGD2 with 1×MGA-mGFP mRNA. The data set is classed as binding. The protocol:
(§1) AcGFP mRNA appended with one or six copies of the aptamer sequence at the 5′ end, referred to as 1×MGA-mGFP and 6×MGA-mGFP, respectively, was transcribed.
(§2) The effect of UV-irradiation on the fluorescence enhancement was investigated.
(§3) A solution of 30 μM of MGD2 was mixed with 4 μM of the corresponding mRNA in 1×PBS (1.54 mM potassium monobasic, 155.17 mM sodium chloride, and 2.71 mM sodium phosphate dibasic with pH=7.2) and incubated at room temperature for 20 min. For comparison, a solution of MGD2 without any RNA was also prepared in 1×PBS. The fluorescence of these solutions was measured using a BioTek Cytation™ 5 plate reader with ex=620±20 nm and em=680±20 nm. The average fluorescence value from replicate experiments was used to calculate fluorescence enhancement.

A further data set concerns 6×MGA-mGFP. Briefly: In vitro fluorescence enhancement of MGD2 with 6×MGA-mGFP mRNA. It counts as binding. As to the method: as §1, §3
Data set [2] in a line: Fluorescence of MGD2 without any RNA in 1×PBS. The data set is classed as physicochemical. The following applies: MGD2 without RNA in 1×PBS; 30 μM MGD2; ex=620±20 nm, em=680±20 nm. The protocol:
as §3

Data set [3] has as its system control mGFP mRNA that does not contain the aptamer sequence. Nature of the data set: Effect of UV-irradiation on fluorescence of MGD2 with control mRNA. To be noted: up to 15 minutes of UV-irradiation. The data set is classed as binding. The protocol:
as §2, §3

Data set [4] has as its system cellular RNA extracted from HeLa cells. Nature of the data set: Determination of MGD2 selectivity in cellular RNA (agarose gel). It counts as biochemical. To be noted: 10 min UV. The protocol: To determine the selectivity of MGD2 labeling, 6MGA-mGFP (200 ng) was spiked in into cellular RNA extracted from HeLa cells (400 ng) in 1×PBS. […] After 10 min of UV irradiation, the sample was mixed with equal volume of 50% glycerol solution and heated to 70° C. to denature the RNA. This sample was loaded on to 1% agarose gel containing 1% v/v Clorox® bleach2 and Sybr Gold™. After running the gel for 1 h at a constant 100 V, the gel was frozen with dry ice for 10 min and imaged using GE Amersham Typhoon™. This freezing step enhanced the fluorescence output of the malachite green molecule.
Experiments were performed to determine whether this would create problematic background signal during imaging. […] The collective observations from these experiments served as guidelines for irradiation time and dye concentrations used in subsequent cellular labeling experiments.

For data set [5], the system named is Neuro-2a cells. Nature of the data set: Fixed-cell imaging of MGA-functionalized mCDK6 in stress granules. It counts as cell-based, Mouse. The source says: Fixed cell experiments enable direct comparisons to FISH and validate labeling of the target RNA in cells. As a biological context for testing the labeling method, stress granules were selected. In response to stress conditions, cells form non-membrane-bound cytosolic […] RNA-protein assemblies to stall the translation of mRNA until the cells are no longer under stress. While most mRNAs can be concentrated to stress granules, different mRNAs have vastly distinct localization efficiencies. Using FISH, experiments indicate that the CDK6 mRNA is highly enriched in stress granules of mammalian cells CDK6 was used as a model system to fluorescently label and image the unique distribution pattern of the mRNA. Both the 6× and 1×MGA sequences were inserted at the 5′ end of the transcript, and the construct was placed under the control of the cytomegalovirus (CMV) promoter (FIG. 2A). Mouse neuroblastoma Neuro-2a cells were then transfected with these plasmids and incubated with 30 μM MGD2 for 20 min. The cells were then irradiated using 365 nm UV light to allow for covalent labeling of the aptamer. The media was replaced to washout excess dye, and cell stress conditions were induced by 45 min of arsenite exposure, a well characterized paradigm to induce formation of stress granules. Following fixation and immunofluorescence labeling of the stress granule marker protein (G3BP1), the cells were imaged using confocal microscopy.
To validate that the fluorescence signal observed was arising from labeling of the target CDK6 mRNA, the Neuro-2a cells were simultaneously incubated with FISH probes complementary to the CDK6 sequence but bearing a spectrally orthogonal fluorophore. This experiment also enabled us to directly compare the sensitivity of the MGA/MGD2 system to the commonly used FISH technique for RNA labeling in fixed cells. Following arsenite stress, MGD2 labeling, and cell fixation, the cells were incubated with our custom FISH probes. […] That may be because during FISH labeling, the fluorescent probe is hybridized after the RNA of interest is localized to granules. […]

[6] abbreviates: 1×MGA-mGFP in the presence of MGD2.
Setting [7] is: 6×MGA-mGFP in the presence of MGD2.
The mark [8] stands for this setting: 6MGA-mGFP 200 ng in 400 ng HeLa RNA, MGD2 50 μM.

Regarding `OCCCCCCO` [1,6-hexanediol], in the data set with Neuro-2a cells [1] (5% 1,6-hexanediol, labeled 1×MGA-mCDK6), the “effect on RNA granules” value is given as “most of the RNA granules exhibited a more sustained structural integrity”. The “incubation time after which signal from the protein granules disappeared” value with Neuro-2a cells [1] (5% hexanediol, after arsenite-induced stress granule formation) was determined as 7 min.

In the case of `CN(C)c1ccc(C(=C2C=CC(=[N+](C)C)C=C2)c2ccc(NC(=O)CCC3(C)N=N3)cc2)cc1` [MGD2, N-(4-((4-(dimethylamino)phenyl)(4-(3-(3-methyl-3H-diazirin-3-yl) Propan amido)phenyl)methylene)cyclohexa-2,5-dien-1-ylidene)-N-methylmethanaminium Chloride], the emission maximum with 1×MGA-mGFP (setting [6]) and in the data set with 6×MGA-mGFP (setting [7]) was 660 nm in each case. The excitation maximum with 1×MGA-mGFP (setting [6]) and in the data set on 6×MGA-mGFP (setting [7]) was 625 nm each time. In the data set on 1×MGA-mGFP (1×MGA-mGFP, after 15 minutes of UV irradiation (stabilized)), the “fluorescence enhancement after UV irradiation” value is on record as “approximately 140 fold”. In addition, the fluorescence enhancement in the data set with 1×MGA-mGFP (MGD2 bound to 1×MGA-mGFP, prior to UV-irradiation) was 251 fold; in the data set with 6×MGA-mGFP (MGD2 bound to 6×MGA-mGFP, prior to UV-irradiation) it was over 1000 fold. Besides, the “fluorescence output (mean)” value in data set [2] is 6.25. Also, the “fluorescence enhancement with control mRNA” value in data set [3] is reported as “did not result in any detectable fluorescence enhancement”. The “labeling of aptamer functionalized mRNA spiked into cellular RNA” value in data set [4] (setting [8]) was “selectively labeled the aptamer functionalized mRNA”. The “labeling of cellular RNA” value in data set [4] (setting [8]) is “did not have any detectable labeling of cellular RNA”. The “labeling of other cellular RNAs (bands in the MG channel)” value in data set [4] (MGD2 30 μM with 6×MGA-mGFP in presence of cellular RNA) is “no bands from labeling of other cellular RNAs”. Besides, the “difference in fluorescence intensity of cytoplasmic mRNA granules, 1×MGA versus 6×MGA” value with Neuro-2a cells [5] (1×MGA reduced versus 6×MGA-functionalized mRNA) was about 2 fold. Also, the “sensitivity of RNA detection compared with FISH” value in the data set on Neuro-2a cells [5] (1×MGA- and 6×MGA-functionalized mRNAs, FISH probes complementary to CDK6) is “higher sensitivity for RNA detection than FISH”. The “labeling in control cells” value in the data set with Neuro-2a cells [5] (cells transfected with CDK6 lacking the MGA sequence, MGD2 and UV irradiation) is recorded as “did not show any labeling”.

The record behind these values is US20210277399A1, “Methods of Imaging and Tracking Nucleic Acids in Cells” (Emory University, priority 2020, published 2021).
